Literature values as cited in patent publication EP0086705A1, “Aqueous solution of ursodeoxycholic acid for therapeutic uses, process for its preparation and its utilization for the treatment of cholelithiasis” (S.A. PANMEDICA Société dite:, priority 1982, dated 1983).

Settings: 37"C

C[C@H](CCC(=O)O)[C@H]1CC[C@H]2[C@@H]3[C@H](O)C[C@@H]4C[C@H](O)CC[C@]4(C)[C@H]3CC[C@]12C [acide chénodésoxycholique]
pH de précipitation de la solution: 7,0
